According to patent publication US4863905A, “Renin inhibitors II” (Warner-Lambert Company, priority 1987, dated 1989):

target: T1, renin (Homo sapiens, UniProt P00797); assay: in vitro renin inhibitory activity, radioimmunoassay for angiotensin I; assay type: biochemical; settings: renin incubated two hours at 37° with substrate angiotensinogen; angiotensin I by radioimmunoassay; molar concentration causing 50% inhibition
T1 sequence (P00797 67-406): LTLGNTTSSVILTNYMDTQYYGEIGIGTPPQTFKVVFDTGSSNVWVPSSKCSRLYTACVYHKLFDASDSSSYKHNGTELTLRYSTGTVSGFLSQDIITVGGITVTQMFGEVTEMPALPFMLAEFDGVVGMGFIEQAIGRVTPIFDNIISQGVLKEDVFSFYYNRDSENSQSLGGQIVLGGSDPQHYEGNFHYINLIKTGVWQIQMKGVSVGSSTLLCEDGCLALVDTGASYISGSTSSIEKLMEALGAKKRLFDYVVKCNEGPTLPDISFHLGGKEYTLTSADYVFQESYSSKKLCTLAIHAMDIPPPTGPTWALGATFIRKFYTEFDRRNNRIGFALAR
Description: The effectiveness of the aforementioned compound is determined by a test for in vitro renin inhibitory activity. This activity is determined by a standard radioimmunoassay for angiotensin I. In this assay the enzyme, renin, incubated for two hours at 37° in the presence of a substrate, angiotensinogen, generates the product, angiotensin I. Test compounds are added to the incubation mixture. Relative activity is reported as the IC50, which is the molar concentration of test compound causing a 50% inhibition of the renin activity.

IC50 [nM]	Substance
12000	DNMA--HIS--STA[CHOHCH2 ]CH2 Ph [Example 18]
1900	DNMA[CHOHCH2 ]LEU--STA--NHCH2 CH(CH3)CH2 CH3 [Example 20]
8700	DNMA--HIS--STA[CH2 NH]CH2 CH(CH3)CH2 CH3 [Example 10]
160	DNMA--HIS--STA[CH2 SO2 ](CH2)3 CH3 [Example 4]
6400	DNMA--HIS--CYCLOHEXYLALA[CHOHCH2 ]GLY--LEU--NHCH2 Ph [Example 11]
170	DNMA--HIS--CYCLOHEXYLALA[CHOHCH2 ]LEU--NHCH2 CH(CH3)--CH2 CH3 [Example 15]
280	DNMA--HIS--CYCLOHEXYLALA[CHOHCHOH]CH2 OH [Example 7]
1800	DNMA--HIS--CYCLOHEXYLALA[CHOHCH2 ](CH2)2 CH(CH3)2 [Example 5]
4400	DNMA--HIS--CYCLOHEXYLALA[CHOHCH2 ]LEU--NHCH2 Ph [Example 14]

Substance	IC50 [nM]
DNMA--HIS--LEU[CHOHCH2 ]SO2 NHCH2 CH2 Ph [Example 1]	12000
DNMA--HIS--CYCLOHEXYLALA[CHOHCH2 ]GLY--NHCH2 CH(CH3)--CH2 CH3 [Example 16]	250
DNMA--HIS[CH2 NH]STA--NHCH2 CH(CH3)CH2 CH3 [Example 8]	16000
DNMA--HIS--CYCLOHEXYLALA[CHOHCH2 ]GLY--NHCH2 Ph [Example 17]	3400

same assay, conditions: renin incubated two hours at 37° with substrate angiotensinogen; angiotensin I by radioimmunoassay; molar concentration causing 50% inhibition; listed as DNMAHIS STA[CHOHCH2 ]CH2 Ph (ISOMER)

Substance	IC50 [nM]
DNMA--HIS--STA[CHOHCH2 ]CH2 Ph [Example 19]	1400
